Test results published in ChEMBL document CHEMBL5108030, “Structure activity relationships leading to the identification of the indirect activator of AMPK, R419” (Bioorg Med Chem, 2022).

How the values were obtained:
[1] = target: AMP-activated protein kinase, AMPK; assay: Activation of AMPK in human HepG2 cells assessed as increase in ACC phosphorylation at Ser79 incubated for 1 hr; type: cell-based
[2] = tested on: A549; assay: Antiproliferative activity against human A549 cells assessed as cell growth inhibition incubated for 48 hrs by DAPI staining assay; type: functional, cell-based; details: A549, 48 h
[3] = tested on: NCI-H1299; assay: Antiproliferative activity against human NCI-H1299 cells assessed as cell growth inhibition incubated for 48 hrs by DAPI staining assay; type: functional, cell-based; details: NCI-H1299, 48 h
[4] = target: AMP-activated protein kinase, AMPK; assay: Activation of AMPK in human HepG2 cells assessed as reduction in mitochondrial ATP production incubated for 1 hr; type: cell-based
[5] = target: T1, hERG (KCNH2) (Homo sapiens, UniProt Q12809); assay: Inhibition of human ERG at 10 uM; type: toxicity
T1 sequence (Q12809 whole entry): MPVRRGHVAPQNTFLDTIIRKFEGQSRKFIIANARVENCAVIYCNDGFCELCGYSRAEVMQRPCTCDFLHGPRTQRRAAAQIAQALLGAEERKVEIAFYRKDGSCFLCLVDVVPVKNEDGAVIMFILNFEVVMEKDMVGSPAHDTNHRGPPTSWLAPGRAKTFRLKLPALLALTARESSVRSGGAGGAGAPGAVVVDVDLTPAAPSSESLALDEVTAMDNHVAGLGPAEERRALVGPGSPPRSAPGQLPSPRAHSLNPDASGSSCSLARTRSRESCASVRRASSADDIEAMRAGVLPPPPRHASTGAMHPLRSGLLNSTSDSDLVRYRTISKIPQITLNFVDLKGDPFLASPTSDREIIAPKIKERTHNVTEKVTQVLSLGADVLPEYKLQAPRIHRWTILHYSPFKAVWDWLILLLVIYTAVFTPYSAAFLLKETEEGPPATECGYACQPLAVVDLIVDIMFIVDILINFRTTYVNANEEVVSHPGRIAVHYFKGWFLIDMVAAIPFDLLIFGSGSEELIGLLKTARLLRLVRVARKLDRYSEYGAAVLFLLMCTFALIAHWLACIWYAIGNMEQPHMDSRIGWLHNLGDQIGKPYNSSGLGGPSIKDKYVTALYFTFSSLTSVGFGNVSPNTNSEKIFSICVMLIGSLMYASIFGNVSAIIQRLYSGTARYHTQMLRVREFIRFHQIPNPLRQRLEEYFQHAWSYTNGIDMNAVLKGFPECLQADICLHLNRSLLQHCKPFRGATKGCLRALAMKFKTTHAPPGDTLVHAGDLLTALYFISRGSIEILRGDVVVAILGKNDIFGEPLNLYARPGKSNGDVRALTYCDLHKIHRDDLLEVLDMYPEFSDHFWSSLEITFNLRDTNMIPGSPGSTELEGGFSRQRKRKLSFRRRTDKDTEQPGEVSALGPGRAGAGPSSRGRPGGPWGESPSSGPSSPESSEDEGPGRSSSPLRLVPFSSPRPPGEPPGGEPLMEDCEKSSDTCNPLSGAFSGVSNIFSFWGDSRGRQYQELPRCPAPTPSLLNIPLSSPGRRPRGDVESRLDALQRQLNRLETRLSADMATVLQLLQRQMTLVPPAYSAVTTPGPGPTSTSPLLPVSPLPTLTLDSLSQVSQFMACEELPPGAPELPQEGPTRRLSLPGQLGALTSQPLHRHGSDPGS

[6] = Microsomal stability in human liver microsomes assessed as half life; type: ADME, Microsome
[7] = target: T1, hERG (KCNH2); assay: Inhibition of human ERG at 3 uM; type: toxicity
[8] = Clearance in rat at 1 mg/kg,iv measured upto 10 hrs; type: ADME, organism-based; details: in vivo
[9] = target: T2, Cytochrome P450 3A4 (Homo sapiens, UniProt P08684); assay: Inhibition of CYP3A4 (unknown origin) in presence of NADPH; type: ADME
T2 sequence (P08684 whole entry): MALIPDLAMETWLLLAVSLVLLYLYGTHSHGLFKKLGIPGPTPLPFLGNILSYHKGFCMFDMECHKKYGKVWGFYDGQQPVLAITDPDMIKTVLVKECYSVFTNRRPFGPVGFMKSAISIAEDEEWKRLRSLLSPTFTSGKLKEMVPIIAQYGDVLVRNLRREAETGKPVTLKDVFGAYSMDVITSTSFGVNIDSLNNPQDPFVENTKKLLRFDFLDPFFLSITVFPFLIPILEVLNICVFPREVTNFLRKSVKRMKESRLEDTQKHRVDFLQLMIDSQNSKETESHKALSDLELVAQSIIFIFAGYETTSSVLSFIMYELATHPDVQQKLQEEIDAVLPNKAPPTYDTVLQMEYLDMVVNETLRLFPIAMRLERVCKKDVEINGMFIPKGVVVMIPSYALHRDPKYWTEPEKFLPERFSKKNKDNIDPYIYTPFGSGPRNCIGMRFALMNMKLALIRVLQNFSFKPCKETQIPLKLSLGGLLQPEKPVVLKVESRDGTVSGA

[10] = target: T2, Cytochrome P450 3A4; assay: Inhibition of CYP3A4 (unknown origin); type: ADME

Row | SMILES | EC50 [1] [nM] | IC50 [2] [nM] | IC50 [3] [nM] | IC50 [4] [nM] | also measured
1 | COc1ccc(CN2CCC(NC(=O)c3ccc(C(=O)N4CCC(C(=O)c5ccc(S(C)(=O)=O)cc5)CC4)nc3)CC2)cc1 | 1500 | 7160 | 8720 | – | –
2 | COc1ccc(C(=O)C2CCN(C(=O)c3ccc(C(=O)NC4CCN(Cc5ccc(OC(F)(F)F)cc5)CC4)cn3)CC2)cc1 | 9 | > 20000 | > 20000 | 820 | inhibition at 10 µM [5]: 21%
3 | O=C(NC1CCN(Cc2ccc(F)cc2)CC1)c1ccc(C(=O)N2CCC(C(=O)c3ccc(-n4cccn4)cc3)CC2)nc1 | 21 | 5930 | 6580 | 890 | inhibition at 10 µM [5]: 85%
4 | COc1ccc(C(=O)C2CCN(C(=O)c3ccc(C(=O)NC4CCN(Cc5ccc(S(C)(=O)=O)cc5)CC4)cn3)CC2)cc1 | – | 9140 | 5520 | – | –
5 | COc1ccc(C(=O)C2CCN(C(=O)c3ccc(C(=O)NC4CCN(Cc5ccc(F)cc5)CC4)cn3)CC2)cc1 | 27 | > 20000 | > 20000 | 2390 | half-life [6]: 71 min; inhibition at 3 µM [7]: 64%
6 | CS(=O)(=O)c1ccc(C(=O)C2CCN(C(=O)c3ccc(C(=O)NC4CCN(Cc5ccc(F)cc5)CC4)cn3)CC2)cc1 | 2000 | 6270 | 8700 | – | inhibition at 3 µM [7]: 83%
7 | N#Cc1ccc(CN2CCC(NC(=O)c3ccc(C(=O)N4CCC(C(O)c5ccc(F)cc5)CC4)cn3)CC2)cc1 (stereo not drawn) | 55 | – | – | 619 | –
8 | N#Cc1ccc(CN2CCC(NC(=O)c3ccc(C(=O)N4CCC(C(=O)c5ccc(F)cc5F)CC4)cn3)CC2)cc1 | 27 | – | – | 8 | half-life [6]: 63 min; IC50 [9]: > 10000 nM; IC50 [10]: > 10000 nM; inhibition at 3 µM [7]: 34%
9 | N#Cc1ccc(CN2CCC(NC(=O)c3ccc(C(=O)N4CCC(Oc5ccc(C#N)cc5)CC4)nc3)CC2)cc1 | 92 | – | – | 476 | –
10 | COc1ccc(CN2CCC(NC(=O)c3ccc(C(=O)N4CCC(C(=O)c5ccc(N6CCCC6)cc5)CC4)nc3)CC2)cc1 | 57 | 13000 | 8400 | 200 | –
11 | O=C(NC1CCN(Cc2ccc(F)cc2)CC1)c1ccc(C(=O)N2CCC(C(=O)c3ccc(N4CCCC4)cc3)CC2)nc1 | 12 | 8670 | 9270 | 730 | half-life [6]: 63 min; inhibition at 10 µM [5]: 82%; clearance [8]: 269 mL/min/kg
12 | CS(=O)(=O)c1ccc(C(=O)C2CCN(C(=O)c3ccc(C(=O)NC4CCN(Cc5ccc(C#N)cc5)CC4)cn3)CC2)cc1 | 2000 | 6720 | 7190 | – | –
13 | N#Cc1ccc(CN2CCC(NC(=O)c3ccc(C(=O)N4CCC(Oc5ccc(F)cc5F)CC4)cn3)CC2)cc1 | 4 | – | – | 22 | –
14 | N#Cc1ccc(CN2CCC(NC(=O)c3ccc(C(=O)N4CCC(C(=O)c5ccc(F)cc5F)CC4)nc3)CC2)cc1 | 18 | – | – | 1870 | inhibition at 3 µM [7]: 64%
15 | COc1ccc(C(=O)C2CCN(C(=O)c3ccc(C(=O)NC4CCN(Cc5ccc(N)cc5)CC4)cn3)CC2)cc1 | 1000 | 8990 | 13800 | – | –
16 | N#Cc1ccc(CN2CCC(NC(=O)c3ccc(C(=O)N4CCC(C(=O)c5ccc(-n6ccnc6)cc5)CC4)nc3)CC2)cc1 | 312 | 15100 | 15100 | – | –
17 | COc1ccc(CC2CCN(C(=O)c3ccc(C(=O)NC4CCN(Cc5ccc(C#N)cc5)CC4)nc3)CC2)cc1 | 1 | – | – | 7 | half-life [6]: 46 min; IC50 [9]: > 10000 nM; IC50 [10]: 2000 nM

Row | SMILES | EC50 [1] [nM] | IC50 [2] [nM] | IC50 [3] [nM] | IC50 [4] [nM] | also measured
18 | N#Cc1ccc(CC2CCN(C(=O)c3ccc(C(=O)NC4CCN(Cc5ccc(C#N)cc5)CC4)nc3)CC2)cc1 | 14 | – | – | 33 | half-life [6]: 14 min
19 | N#Cc1ccc(CN2CCC(NC(=O)c3ccc(C(=O)N4CCC(Oc5ccc(C#N)cc5)CC4)cn3)CC2)cc1 | 3 | – | – | 125 | half-life [6]: 30 min; IC50 [9]: 3500 nM; inhibition at 3 µM [7]: 47%
20 | O=C(NC1CCN(C(=O)C2CCCCC2)CC1)c1ccc(C(=O)N2CCN(Cc3ccc(F)cc3)CC2)cn1 | 300 | – | – | – | –
21 | N#Cc1ccc(CN2CCC(NC(=O)c3ccc(C(=O)N4CCC(C(=O)c5ccc(-n6cccn6)cc5)CC4)nc3)CC2)cc1 | 86 | 10400 | 10900 | – | –
22 | N#Cc1ccc(CN2CCC(NC(=O)c3ccc(C(=O)N4CCC(C(=O)c5ccc(N6CCCC6)cc5)CC4)nc3)CC2)cc1 | 20 | 5050 | 5390 | 1660 | –
23 | O=C(NC1CCN(Cc2ccc(OC(F)(F)F)cc2)CC1)c1ccc(C(=O)N2CCC(C(=O)c3ccc(N4CCCC4)cc3)CC2)nc1 | 9 | 5060 | 8280 | 1280 | –
24 | N#Cc1ccc(CN2CCC(NC(=O)c3ccc(C(=O)N4CCC(C(=O)c5ccc(C#N)cc5)CC4)cn3)CC2)cc1 | 5 | – | – | 794 | inhibition at 3 µM [7]: 54%
25 | N#Cc1ccc(CN2CCC(NC(=O)c3ccc(C(=O)N4CCC(Oc5ccc(F)cc5F)CC4)nc3)CC2)cc1 | 13 | – | – | 522 | inhibition at 3 µM [7]: 36%
26 | N#Cc1ccc(CN2CCC(NC(=O)c3ccc(C(=O)N4CCC(C(=O)c5ccc(-n6cncn6)cc5)CC4)nc3)CC2)cc1 | 437 | 4820 | 6310 | – | –
27 | N#Cc1ccc(CN2CCC(NC(=O)c3ccc(C(=O)N4CCC(C(F)c5ccc(F)cc5)CC4)cn3)CC2)cc1 (stereo not drawn) | 6 | – | – | 1 | half-life [6]: 8 min; IC50 [9]: 9800 nM
28 | N#Cc1ccc(CN2CCC(NC(=O)c3ccc(C(=O)N4CCC(C(=O)c5ccc(F)cc5)CC4)cn3)CC2)cc1 | 2 | – | – | 21 | –
29 | COc1ccc(CN2CCC(NC(=O)c3ccc(C(=O)N4CCC(C(=O)c5ccc(OC)cc5)CC4)nc3)CC2)cc1 | 41 | > 20000 | > 20000 | 2310 | inhibition at 3 µM [7]: 70%
30 | COc1ccc(OC2CCN(C(=O)c3ccc(C(=O)NC4CCN(Cc5ccc(C#N)cc5)CC4)nc3)CC2)cc1 | 11 | – | – | 60 | half-life [6]: 68 min; IC50 [9]: > 10000 nM; IC50 [10]: > 10000 nM; inhibition at 3 µM [7]: 46%; clearance [8]: 71 mL/min/kg
31 | N#Cc1ccc(CN2CCC(NC(=O)c3ccc(C(=O)N4CCC(F)(C(=O)c5ccc(F)cc5)CC4)cn3)CC2)cc1 | 2 | – | – | 16 | half-life [6]: 27 min; IC50 [9]: > 10000 nM; IC50 [10]: > 10000 nM
32 | COc1ccc(C(=O)C2CCN(C(=O)c3ccc(C(=O)NC4CCN(Cc5ccc(NC(C)=O)cc5)CC4)cn3)CC2)cc1 | 1000 | 8790 | 11000 | – | –
33 | COc1ccc(C(=O)C2CCN(C(=O)c3ccc(C(=O)NC4CCN(Cc5ccc(C(=O)N(C)C)cc5)CC4)cn3)CC2)cc1 | 1050 | 13400 | > 20000 | – | –

Now from value to compound, other results behind:

Row | EC50 [1] [nM] | IC50 [2] [nM] | IC50 [3] [nM] | IC50 [4] [nM] | SMILES | also measured
34 | 950 | – | – | – | N#Cc1ccc(C(=O)N2CCC(NC(=O)c3ccc(C(=O)N4CCN(Cc5ccc(F)cc5)CC4)cn3)CC2)cc1 | –
35 | 1 | – | – | – | N#Cc1ccc(CN2CCC(NC(=O)c3ccc(C(=O)N4CCN(Cc5ccc(F)cc5)CC4)cn3)CC2)cc1 | half-life [6]: 55 min; inhibition at 3 µM [7]: 36%; clearance [8]: 200 mL/min/kg
36 | 548 | – | – | – | COc1ccc(S(=O)(=O)N2CCN(C(=O)c3ccc(C(=O)NC4CCN(Cc5ccc(C#N)cc5)CC4)nc3)CC2)cc1 | –
37 | 804 | – | – | – | N#Cc1ccc(S(=O)(=O)N2CCC(NC(=O)c3ccc(C(=O)N4CCN(Cc5ccc(F)cc5)CC4)cn3)CC2)cc1 | –
38 | 2790 | – | – | – | CC(C)(c1ccccc1)N1CCC(NC(=O)c2ccc(C(=O)N3CCN(Cc4ccc(F)cc4)CC3)cn2)CC1 | –
39 | 413 | – | – | – | N#Cc1ccc(CN2CCC(NC(=O)c3ccc(C(=O)N4CCN(C(=O)c5ccc(F)cc5)CC4)cn3)CC2)cc1 | –
40 | 16 | – | – | – | O=C(NC1CCN(Cc2ccccc2)CC1)c1ccc(C(=O)N2CCN(Cc3ccccc3)CC2)cn1 | –
41 | 129 | – | – | – | CC(c1ccccc1)N1CCC(NC(=O)c2ccc(C(=O)N3CCN(Cc4ccc(F)cc4)CC3)cn2)CC1 (stereo not drawn) | –
42 | 110 | – | – | – | N#Cc1ccc(CN2CCC(NC(=O)c3ccc(C(=O)N4CCC(Cc5ccccc5)CC4)cn3)CC2)cc1 | –
43 | 1390 | – | – | – | N#Cc1ccc(CN2CCC(NC(=O)c3ccc(C(=O)N4CCN(C(=O)c5ccccc5)CC4)cn3)CC2)cc1 | –
44 | 532 | – | – | – | CC(C)(C)C(=O)N1CCN(C(=O)c2ccc(C(=O)NC3CCN(Cc4ccc(C#N)cc4)CC3)nc2)CC1 | –
45 | 1 | – | – | – | CC1(C)CN(C(=O)c2ccc(C(=O)NC3CCN(Cc4ccc(C#N)cc4)CC3)nc2)CCN1Cc1ccc(F)cc1 | –
46 | 175 | – | – | – | COc1ccc(C(=O)N2CCN(C(=O)c3ccc(C(=O)NC4CCN(Cc5ccc(C#N)cc5)CC4)nc3)CC2)cc1 | –
47 | 10000 | – | – | – | O=C(c1ccc(C(=O)N2CCN(Cc3ccccc3)CC2)nc1)N1CCN(Cc2ccccc2)CC1 | –
48 | 466 | – | – | – | N#Cc1ccc(CN2CCC(NC(=O)c3ccc(C(=O)N4CCN(Cc5ccc(F)cc5)C(=O)C4)cn3)CC2)cc1 | –
49 | 240 | – | – | – | O=C(NC1CCN(C(=O)c2ccccc2)CC1)c1ccc(C(=O)N2CCN(Cc3ccc(F)cc3)CC2)cn1 | –
50 | 360 | – | – | – | N#Cc1ccc(CN2CCC(NC(=O)c3ccc(C(=O)N4CCN(S(=O)(=O)c5ccccc5)CC4)cn3)CC2)cc1 | –
51 | 10000 | – | – | – | O=C(NC1CCN(Cc2ccccc2)CC1)c1ccc(C(=O)NC2CCN(Cc3ccccc3)CC2)nc1 | –
52 | 6 | – | – | – | CC(C)(c1ccc(F)cc1)N1CCN(C(=O)c2ccc(C(=O)NC3CCN(Cc4ccc(C#N)cc4)CC3)nc2)CC1 | –
53 | 393 | – | – | – | N#Cc1ccc(CN2CCC(NC(=O)c3ccc(C(=O)N4CCN(S(=O)(=O)c5ccc(F)cc5)CC4)cn3)CC2)cc1 | –
54 | 35 | – | – | 1390 | O=C(NC1CCN(Cc2ccccc2)CC1)c1ccc(C(=O)N2CCN(Cc3ccccc3)CC2)nc1 | –
